Reference: patent publication US20090227632A1, “PHARMACEUTICAL COMPOSITION COMPRISING, IN COMBINATION, SAREDUTANT AND A SELECTIVE SEROTONIN REUPTAKE INHIBITOR OR A SEROTONIN/NOREPINEPHRINE REUPTAKE INHIBITOR” (priority 2006, published 2009)

Test system: rat
Assay: DRL-72 s (Differential Reinforcement of Low-rate-72 seconds) in-vivo rat test
Conditions: for % reinforced presses/total number of presses: n = 8 rats, test duration 1 hour, mean±SEM, solvent control 3.07 ± 0.48%; for minimum active dose in the DRL-72 s test: compound alone, intraperitoneally, rat
Excerpt: The in-vivo rat test DRL-72 s (Differential Reinforcement of Low-rate-72 seconds) is used according to the technique described by C. Louis et al., Neuropsychopharmacology, 2006, 1-8.
Effects compared with regard to the percentage of rewards obtained (reinforced presses) with respect to the total number of presses by the rat after intraperitoneal administration of the compound A alone, of the compound B alone and of the compound A+compound B combination versus the control (solvent alone).
Beforehand, the minimum active doses of the compound A alone and of the compound B alone in the DRL-72 s test were determined, namely: • compound A: 10 mg/kg intraperitoneally; • compound B: 5 mg/kg intraperitoneally.
The compound A alone at the dose of 3 mg/kg and the compound B alone at the dose of 2.5 mg/kg were dissolved in a 0.9% (weight/volume) aqueous sodium chloride solution comprising 0.1% (v/v) Tween 80® and administered intraperitoneally at a final volume of 1 ml/kg.
The combination was administered intraperitoneally by two simultaneous administrations of the compound A (3 mg/kg) and then of the compound B (2.5 mg/kg).
The doses of the compounds are expressed in the free base form.
For the requirements of the test, the effect of the compound A alone, the effect of the compound B alone and the effect of the compound A+compound B combination, compared with the effect of the solvent (control), are measured for each animal.
Each rat (n=8) thus receives four injections spread out over time, namely the solvent (control), the compound A alone, the compound B alone and the compound A+compound B combination.
The results obtained are collated in Table I and are expressed as a percentage of rewards obtained with respect to the total number of presses over the duration of the test (1 hour), in the mean±SEM (standard error of the mean) form.

| Compound | percentage number of rewards obtained with respect to the control (in words) (compound B alone 2.5 mg/kg i.p.) | % reinforced presses/total number of presses (compound B alone 2.5 mg/kg intraperitoneally) [%] | minimum active dose in the DRL-72 s test [mg/kg] | percentage number of rewards obtained with respect to the control (in words) (compound A alone 3 mg/kg i.p., increase not statistically significant) | % reinforced presses/total number of presses (compound A alone 3 mg/kg intraperitoneally) [%] |
| --- | --- | --- | --- | --- | --- |
| CNCCC(Oc1ccc(C(F)(F)F)cc1)c1ccccc1 (racemic) [Compound B, (±)-N-methyl-3-phenyl-3-[4-(trifluoromethyl)phenoxy]propan-1-amine] | does not modify | 3.82 ± 0.76 | 5 |  |  |
| CC(=O)NC1(c2ccccc2)CCN(CC[C@H](CN(C)C(=O)c2ccccc2)c2ccc(Cl)c(Cl)c2)CC1 [Compound A, (S)-(−)-N-[4-(4-Acetamido-4-phenylpiperidin-1-yl)-2-(3,4-dichlorophenyl)butyl]-N-methylbenzamide] |  |  | 10 | only slightly modifies | 6.41 ± 1.73 |
